Laboratory results: ChEMBL document CHEMBL1671624, “Efficacy of quinoxaline-2-carboxylate 1,4-di-N-oxide derivatives in experimental tuberculosis” (Antimicrob Agents Chemother, 2008)
Values after ≈ are worked out from the molar mass of the structure shown.

What was measured:
Assay type in all cases: functional
Settings in all cases: variant bovis BCG
[1] = test system: Mycobacterium tuberculosis; assay: Antibacterial activity against wild-type Mycobacterium bovis BCG by microplate Alamar Blue assay
[2] = test system: Mycobacterium tuberculosis; assay: Antibacterial activity against Mycobacterium bovis BCG harboring fgd gene by microplate Alamar Blue assay
[3] = test system: Mycobacterium tuberculosis; assay: Antibacterial activity against Mycobacterium bovis BCG harboring moaA gene by microplate Alamar Blue assay
[4] = test system: Mycobacterium tuberculosis; assay: Antibacterial activity against Mycobacterium bovis BCG harboring fbiC gene by microplate Alamar Blue assay
[5] = test system: Mycobacterium tuberculosis; assay: Antibacterial activity against Mycobacterium bovis BCG harboring moaD gene by microplate Alamar Blue assay
[6] = test system: Mycobacterium tuberculosis; assay: Antibacterial activity against Mycobacterium bovis BCG harboring pil8 gene by microplate Alamar Blue assay

Compound: O=[N+]([O-])c1cn2c(n1)OC[C@@H](OCc1ccc(OC(F)(F)F)cc1)C2 [PRETOMANID]
- MIC [1]: 0.12 µM (≈ 0.0431 µg/mL)
- MIC [2]: > 128 µM
- MIC [3]: > 128 µM
- MIC [4]: > 128 µM
- MIC [5]: > 128 µM
- MIC [6]: > 128 µM

Compound: O=C(Nc1ccc([N+](=O)[O-])cc1Cl)c1cc(Cl)ccc1O [NICLOSAMIDE]
- MIC [1]: 3.13 µM (≈ 1.02 µg/mL)
- MIC [2]: 1.61 µM (≈ 0.527 µg/mL)
- MIC [3]: 1.86 µM (≈ 0.608 µg/mL)
- MIC [4]: 1.57 µM (≈ 0.514 µg/mL)
- MIC [5]: 1.9 µM (≈ 0.622 µg/mL)
- MIC [6]: 1.87 µM (≈ 0.612 µg/mL)

Compound: CCOC(=O)c1c(C)[n+]([O-])c2ccc(Cl)cc2[n+]1[O-]
- MIC [1]: 0.5 µM (≈ 0.141 µg/mL)
- MIC [2]: 0.5 µM (≈ 0.141 µg/mL)
- MIC [3]: 0.38 µM (≈ 0.107 µg/mL)
- MIC [4]: 0.71 µM (≈ 0.201 µg/mL)
- MIC [5]: 0.55 µM (≈ 0.155 µg/mL)
- MIC [6]: 0.72 µM (≈ 0.204 µg/mL)
